Source: EP2977042B1, “OLOPATADINE FORMULATIONS FOR TOPICAL NASAL ADMINISTRATION” (Novartis AG, priority 2007, dated 2008)
Counter-ions that a name gives are not always drawn.

Columns and labels:
Assay type in all cases: physicochemical
[1] = Acid-base equilibrium (pKa values) of olopatadine
Source text: Olopatadine has both a carboxylic functional group (pKa1 = 4.18) and a tertiary amino group (pKa2 = 9.79). It exists in different ionic forms depending upon the pH of the solution. Olopatadine exists predominantly as a zwitterion in the pH range between the two pKa values with a negatively-charged carboxylic group and a positively-charged tertiary amino group. The isoelectric point of the olopatadine zwitterion is at pH 6.99. At a pH lower than pKa1, cationic olopatadine (with ionized tertiary amino group) is dominant. At a pH higher than pKa2, anionic olopatadine (with ionized carboxylic group) is dominant.

[2] = Dissolution rate of olopatadine hydrochloride in water, effect of NaCl and Na2HPO4
Method: The effect of NaCl on the dissolution rate of olopatadine hydrochloride in water was determined.

[3] = Dissolution rate of olopatadine hydrochloride in a nasal formulation containing 0.01% EDTA and 0.01% BAC, effect of NaCl and Na2HPO4 concentrations
Method: The effect of NaCl and Na2HPO4 concentrations on the dissolution rate of olopatadine hydrochloride in a nasal formulation containing 0.01% EDTA and 0.01% BAC was determined. The aqueous solubility of olopatadine HCl decreases with increasing concentration of NaCl. However, increasing phosphate buffer correlates with increased aqueous solubility of olopatadine HCl in the presence of NaCl.

[4] = Visual observation of composition clarity during compounding
Method: An exemplary compounding procedure for the nasal composition shown in Table 1 is described as below. • 1. Tare a suitable compounding vessel with magnetic stir bar. Add approximately 80% of the batch weight of purified water. • 2. While stirring, add dibasic sodium phosphate (anhydrous), sodium chloride, edetate disodium, benzalkonium chloride and olopatadine HCl. • 3. Add equivalent to approximately 0.55 g, 6N hydrochloric acid per 100 ml batch. • 4. Allow adequate time between each addition for dissolution of each ingredient • 5. Add purified water to approximately 90% of final batch weight. • 6. Measure pH and adjust, if necessary, to 3.7 with 6N (and/or 1N) hydrochloric acid and 1N sodium hydroxide. • 7. Adjust to final batch weight with purified water (QS). • 8. Measure final pH. • 9. Filter through 0.2 µm filtration membrane. The two compositions shown in Table 2 below were prepared using the procedure described in Example 1 and visual observations of the compositions clarity were made at different points during the compounding procedure. […] In each case, visual observations relating to the composition's clarity were recorded. […] Visual observations of the clarity of each composition were recorded as each composition was prepared.

Row | pKa1 ([1]; carboxylic functional group) | isoelectric point of the olopatadine zwitterion ([1]; given as pH) | pKa2 ([1]; tertiary amino group) | effect of NaCl on the rate of dissolution ([2]; in water) | effect of addition of Na2HPO4 on dissolution ([2]; in water with NaCl) | time for complete dissolution of 0.6% olopatadine solution ([2]; in water with NaCl, with Na2HPO4) | time for complete dissolution of 0.6% olopatadine solution ([2]; in water with NaCl, without Na2HPO4, assuming the entire amount would eventually dissolve) | aqueous solubility ([3]; with increasing concentration of NaCl) | aqueous solubility ([3]; with increasing phosphate buffer, in the presence of NaCl) | solubility of 0.665% olopatadine hydrochloride in the tested nasal vehicle ([4]; without a phosphate salt) | dissolution of 0.665% olopatadine hydrochloride in water ([4]; without phosphate buffer, in the presence of 0.7% NaCl, pH as low as 3.6, compounding procedure of Example 1) | Compound
1 | 4.18 | 6.99 | 9.79 | significant reduction | dramatically improved | less than one | at least several hours | – | – | – | – | CN(C)CC/C=C1/c2ccccc2COc2ccc(CC(=O)O)cc21 [olopatadine, Z-11-(3-dimethylaminopropylidene)-6, 11-dihydrodibenz[b,e]oxepine-2-acetic acid]
2 | – | – | – | – | – | – | – | decreases | increased | not soluble | did not completely dissolve | CN(C)CC/C=C1/c2ccccc2COc2ccc(CC(=O)O)cc21 [olopatadine HCl, (Z)-11-(3-dimethylaminopropylidene)-6,11-dihydro-dibenz-[b,e]oxepin-2-acetic acid]
